From patent US20100196516A1, “TREATMENT OF INFECTIONS BY CARBON MONOXIDE” (priority 2007, published 2010)
“Also recorded” adds a separate entry of the source.

Assays:
hemoglobin (Hb) = target: T1, hemoglobin (Hb) (Bos taurus, UniProt P01966+P02070); experiment: Transfer of CO from CORMs to Hb (carbonylation, shift of Soret band); format: biochemical, bovine
T1 construct: purchased Sigma

S. aureus NCTC8325 = format: cell-based, Staphylococcus aureus; details: for effect on viability / growth of S. aureus: CO gas flux 15 min, CORM-2 250 μM, CORM-3 500 or 400 nM (so in the source), Formula IV 600 μM, Formula V 50 μM, LB medium; for bactericidal effect on S. aureus in the presence of Hb: with CO scavenger Hb, bovine, 20 μM
Experimental: (§1) Bacterial strains and growth conditions: E. coli K-12 ATCC 23716 and S. aureus NCTC8325 were grown in minimal salts (MS) medium (1.3% [wt/vol] Na2HPO4, 0.3% [wt/vol] KH2PO4, 0.05% [wt/vol] NaCl, and 0.1% [wt/vol] NH4Cl supplemented with 20 mM glucose, 2 mM MgSO4, 100 μM CaCl2, and 0.25% [wt/vol] Casamino Acids) and in Luria-Bertani (LB) medium (1% [wt/vol] tryptone, 0.5% [wt/vol] yeast extract, and 1% [wt/vol] NaCl), respectively, under different oxygen supply conditions. Aerobic experiments were undertaken with flasks filled to one-fifth of their volume, microaerobic tests were conducted with closed flasks filled to one-half of their volume, and anaerobic conditions were produced in rubber-sealed flasks that, once filled with medium and closed, were extensively fluxed with nitrogen gas.
(§2) CO gas and CORM treatment: Overnight cultures of E. coli or S. aureus grown in LB or tryptic soy broth, respectively, were used to inoculate fresh MS medium (E. coli) or LB medium (S. aureus), and the cultures on fresh medium were incubated at 37° C. under the required aeration conditions to an optical density at […] of 0.3. At this point, cells were exposed to a flux of CO gas for 15 min or to CORMs. Untreated cells were bubbled with nitrogen gas or treated with dimethyl sulfoxide, water, or methanol, depending on the solvent used to dissolve the CORM.
(§3) Viability assays: The number of viable cells was evaluated by measuring the CFU per milliliter upon plating serial dilutions of the various cultures onto agar plates. The percent survival was calculated as the number of colonies originated by treated cultures divided by the number of colonies formed upon the plating of untreated cultures. Sensitivity tests were conducted by plating 5 μl serial dilutions of cultures grown for 4 h and treated with CORMs, with or without the CO scavenger hemoglobin (Hb [bovine form used at 20 μM; Sigma]), onto agar.

[1] = CO release kinetics: CO released into medium by CORMs (gas chromatography); format: physicochemical; details: media utilized (MS, LB), time scale of the experiment
Experimental: CO release kinetics: CORMs were mixed with MS or LB medium in sealed vessels, and the vessels were incubated at room temperature under constant stirring and protected from light. Gas samples were collected after 30 min and 4 h and analyzed using a gas chromatograph (Thermo Finnigan Trace) equipped with a CTRI column (Alltech) and a thermal conductivity detector. The CO released was quantified using a calibration curve recorded prior to the reaction course.

E. coli K-12 ATCC 23716 = format: cell-based, Escherichia coli; details: for effect on viability / growth of E. coli: CO gas flux 15 min, CORM-2 250 μM, CORM-3 400 μM, Formula IV 500 μM aerobic or 200 μM anaerobic, Formula V 50 μM, MS medium; for bactericidal effect on E. coli in the presence of Hb: with CO scavenger Hb, bovine, 20 μM
Experimental: as §1, §2, §3

bacteria = experiment: Bactericidal effect / bacterial growth, bacterium not given; format: cell-based; details: for bactericidal properties or altered growth kinetics of decomposition products: same concentration as compound of Formula V (50 μM), data not shown
Experimental: as §2
as §3, with “agar. The experiments were performed with a minimum of three independent cultures, and the results are presented in the figures as averaged values with error bars representing one standard deviation.” for “agar.”

S. aureus = experiment: MIC and MBC by tube dilution test; format: cell-based, Staphylococcus aureus; details: minimal medium, at least 18 h at 37° C.
Experimental: (§4) The investigation of MICs and minimal bactericidal concentrations (MBCs) was carried out by the tube dilution test. Briefly, 2.5 ml of minimal medium was inoculated with an overnight culture of E. coli or S. aureus to give an optical density at 600 nm of 0.005 to 0.01. Different concentrations of CORM-2, between 150 μM and 2 mM, were added to the diluted suspensions in the wells of 24-well plates, and the plates were incubated for at least 18 h at 37° C. and 90 rpm. The concentration of CORM-2 in the first well in the series with no sign of visible growth was reported as the MIC. […] After incubation at 37° C. for 24 h, the lowest concentration of CORM-2 in a culture with no growth was assumed to be the MBC.

E. coli = experiment: MIC and MBC by tube dilution test; format: cell-based, Escherichia coli; details: minimal medium, at least 18 h at 37° C.
Experimental: as §4

H. pylori 26695 = experiment: Diffusion disk assay, inhibition halos; format: cell-based, Helicobacter pylori; details: paper disks, 15 μl; 200 mM CORM-2; 150 mM Formula II and Formula III; 24-36 hours

T1 sequence (P01966 2-142): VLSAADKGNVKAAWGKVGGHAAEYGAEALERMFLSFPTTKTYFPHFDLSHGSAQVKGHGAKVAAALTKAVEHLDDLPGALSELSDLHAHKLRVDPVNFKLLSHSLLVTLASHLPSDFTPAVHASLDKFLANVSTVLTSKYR
T1 sequence (P02070 whole entry): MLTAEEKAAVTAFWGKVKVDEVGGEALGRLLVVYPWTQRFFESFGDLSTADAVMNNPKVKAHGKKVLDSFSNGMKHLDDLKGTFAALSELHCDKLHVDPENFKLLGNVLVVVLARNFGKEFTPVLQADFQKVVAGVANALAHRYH

| Compound | effect on viability / growth of S. aureus (S. aureus NCTC8325) | release of CO gas upon dissolution in the medium (in words) [1] | effect on viability / growth of E. coli (E. coli K-12 ATCC 23716) | further results |
| --- | --- | --- | --- | --- |
| NCC(=O)O.[CH+]=O.[CH+]=O.[CH+]=O.[Cl][Ru] [CORM-3, tricarbonylchloro(glycinato)ruthenium(II), reference compound] | strongly decreased the viability | neither CORM-2 nor CORM-3 releases CO gas | strongly decreased the viability | time for carbonylation of Hb (in words) (hemoglobin (Hb)): within the mixing time |
| CC[N+](CC)(CC)CC.[Br-] [tetraethyl ammonium bromide] |  |  |  | bactericidal properties or altered growth kinetics of decomposition products (bacteria): None of these compounds had bactericidal properties or altered growth kinetics |
| [C-]#[O+].[C-]#[O+].[C-]#[O+].[C-]#[O+].[C-]#[O+].[C-]#[O+].[Cl][Ru][Cl].[Cl][Ru][Cl] [CORM-2, tricarbonyldichlororuthenium(II) dimer, reference compound] | significantly diminished | neither CORM-2 nor CORM-3 releases CO gas | significantly diminished | time for carbonylation of Hb (in words) (hemoglobin (Hb)): within the mixing time; MBC/MIC ratio (S. aureus): 1.0; MBC/MIC ratio (E. coli): 1.5; bactericidal effect on H. pylori (inhibition halos) (H. pylori 26695): bactericidal effect |
| [Na+].[Na+].[O]=[Mo](=[O])([O-])[O-] [sodium molybdate] |  |  |  | bactericidal properties or altered growth kinetics of decomposition products (bacteria): None of these compounds had bactericidal properties or altered growth kinetics |
| O=[C][Mo]12([C]=O)([C]=O)[O]C(=O)CN(CCN(CC(=O)O)CC(=O)[O]1)CCN(CC(=O)O)CC(=O)[O]2 [compound of Formula III] |  |  |  | bactericidal effect on H. pylori (inhibition halos) (H. pylori 26695): bactericidal effect |
| [C-]#[O+] [CO gas, Carbon monoxide] | significant growth impairment |  | significant growth impairment | concentration of CO needed to become effective as a bactericide (bacteria; CO administered as gas): ca. 1 mM |
| CC[N+](CC)(CC)CC.O=[C]=[Mo-]([Br])(=[C]=O)(=[C]=O)(=[C]=O)=[C]=O [compound of Formula V, tetraethylammonium molybdenum pentacarbonyl bromide] | strongly reducing the viability | rather small amounts | strongly reducing the viability | bactericidal effect on S. aureus in the presence of Hb (S. aureus NCTC8325): completely eliminated the harmful action; bactericidal effect on E. coli in the presence of Hb (E. coli K-12 ATCC 23716): completely eliminated the harmful action |
| O=[C]=[Mn]([Br])(=[C]=O)(=[C]=O)(=[C]=O)=[C]=O [compound of Formula IV, bromo(pentacarbonyl)manganese] | strongly reducing the viability | rather small amounts | strongly reducing the viability; also recorded: more effective in reducing the viability of E. coli cells grown anaerobically | bactericidal effect on S. aureus in the presence of Hb (S. aureus NCTC8325): completely eliminated the harmful action; bactericidal effect on E. coli in the presence of Hb (E. coli K-12 ATCC 23716): completely eliminated the harmful action |
